In patent publication US20240368133A1, “Compounds for the Treatment of Pain, in Particular, Neuropathic Pain, and/or Other Diseases or Disorders that are Associated with AT2R and/or AT2R Mediated Signaling” (Confo Therapeutics N.V., priority 2021, published 2024):
Converted amounts (≈) assume the structure as drawn. Where two headings read alike, the source gives them in different places.

How the values were obtained:
Kinetic solubility = assay type: physicochemical; conditions: kinetic from dmso stock
Method: Starting from a 20 mM stock solution of test compound in 100% DMSO, dilutions were prepared to a theoretical concentration of 400 μM in duplicates in phosphate-buffered saline pH 7.4 (PBS) (138 mM NaCl, 2.7 mM KCl, 10 mM K-phosphate) and 100 mM citrate buffer pH 3.0 with 2% final DMSO.
The experimental compound dilutions in PBS and citrate buffer were further allowed to equilibrate at 25° C. on a thermostatic orbital shaker for two hours and then centrifuged at 14000 rpm, 5 min and filtered through HTS filter plates using a vacuum manifold. The filtrates of test compounds were diluted 2-fold with acetonitrile with 2% DMSO before measuring. In parallel, compound dilutions in 50% acetonitrile/buffer were prepared to the theoretical concentrations of 0 μM (blank), 100 μM, 200 μM and 400 μM with 2% final DMSO to generate calibration curves.
Ondansetron (Sigma Aldrich USA, cat #03639) was used as a reference to control proper assay performance. 200 μl of each sample were transferred to a 96-well plate and solubility was measured in a 200-550 nm range (in steps of 5 nm). The measurements were performed using a Spectra Max Plus reader in UV-Vis mode. Acquisition and analysis of the data were performed using SoftMax Pro v.5.4 (Molecular Devices) and Excel 2010 data analysis software. Proper absorbance wavelengths for calculations were selected for each compound manually based on absorbance maximums (absolute absorbance unit values for the minimum and maximum concentration points within 0-3 OD range). Each of the final datasets was additionally visually evaluated by the operator and goodness of fit (R2) is calculated for each calibration curve.

CYP2C9 = CYP2C9 (Homo sapiens (Human), UniProt P11712); assay: CYP inhibition, CYP2C9; assay type: in vitro ADME; conditions: test compound at 10 μM, read-out: % Inhibition (PIN) 2C9
Method: (§1) The aim of this assay is to determine the inhibitory potential of a test compound. A major concern for drug-drug-interaction is cytochrome P450 inhibition. Reversible CYP inhibition was determined in human liver microsomes using specific probe substrates for human cytochrome P450 isoenzymes CYP1A2, 2C9, 2C19, 2D6 and 3A4.
The potential for CYP450 inhibition was assessed by performing in vitro inhibition studies using fluorogenic CYP450 substrates with the corresponding CYP450 enzymes and NADPH regeneration system (Vivid CYP450 Screening Kits) with some minor changes to the manufacturer's protocols. The fluorescent signal produced from reaction is directly proportional to the cytochrome P450 activity. In the cases when tested compounds interfere with the CYP450 enzyme-substrate reaction, the fluorescent signal decreases. […] After 10 minutes pre-incubation, the enzymatic reaction was initiated by the addition of a mix of NADPH and the appropriate CYP450 substrates. The plate was incubated for the desired reaction time (25 min for CYP1A2, CYP2C9, CYP2D6, and CYP3A4, 60 min for CYP2C19) after which Stop Reagent was added and fluorescence measured using SpectraMax Paradigm Multi-Mode Microplate Reader. All test points were performed in quadruplicates at concentration 10 μM (1% DMSO).
A 10 mM stock solution of test compound is prepared in methanol. This stock is further serially diluted 1:3 in methanol and then added to mixture containing 50 mM potassium phosphate buffer pH7.4, human liver microsomes (BD Gentest) and probe substrate. […]
(§2) After incubation at 37° C., the reaction (aliquot of 50 μL) is terminated with 150 μL CH3CN:MeOH (2:1) solution with internal standard (warfarin for 2C9, diclofenac for all other tested isoforms). Samples are centrifuged and the supernatant fractions analyzed by LC-MS/MS.
(§3) The instrument responses (ratio of test compound and internal standard peak areas) are referenced to those for solvent controls (assumed as 100%) in order to determine the percentage reduction in probe metabolism. Percent of control activity vs. concentration plots are generated and fitted using GraphPad Prism software to generate IC50.

CYP2C19 = CYP2C19 (Homo sapiens (Human), UniProt P33261); assay: CYP inhibition, CYP2C19; assay type: in vitro ADME; conditions: test compound at 10 μM, read-out: % Inhibition (PIN) 2C19
Method: as §1, with “3A4. […]” for “3A4.”
(§4) A 10 mM stock solution of test compound is prepared in methanol. This stock is further serially diluted 1:3 in methanol and then added to mixture containing 50 mM potassium phosphate buffer pH7.4, human liver microsomes (BD Gentest) and probe substrate. After pre-warming 5 min at 37° C., the reaction is started by adding co-factor mix ([…] glucose-6-phosphate, 1.7 mg/mL NADP, 6 U/mL of glucose-6-phosphate dehydrogenase), resulting in a final concentration of test compound at 10 μM (2% MeOH).
(§5) Final concentrations of co-factor mix components are as follows: 1.56 mg/mL glucose-6-phosphate, 0.34 mg/mL NADP, 1.2 U/mL of glucose-6-phosphate dehydrogenase.
as §2, §3

CYP2D6 = CYP2D6 (Homo sapiens (Human), UniProt P10635); assay: CYP inhibition, CYP2D6; assay type: in vitro ADME; conditions: test compound at 10 μM, read-out: % Inhibition (PIN) 2D6
Method: as §1, with “3A4. […]” for “3A4.”
as §4, §5, §2, §3

[1] = aqueous buffer, kinetic solubility, phosphate-buffered saline pH 7.4, 2% DMSO, 25° C., two hours, read-out: PBS solubility, pH 7.4
[2] = citrate buffer, 25 °C, pH 3, aqueous buffer, read-out: Citrate buffer solubility, pH 3.0

CYP2C19, sequence (P33261 whole entry): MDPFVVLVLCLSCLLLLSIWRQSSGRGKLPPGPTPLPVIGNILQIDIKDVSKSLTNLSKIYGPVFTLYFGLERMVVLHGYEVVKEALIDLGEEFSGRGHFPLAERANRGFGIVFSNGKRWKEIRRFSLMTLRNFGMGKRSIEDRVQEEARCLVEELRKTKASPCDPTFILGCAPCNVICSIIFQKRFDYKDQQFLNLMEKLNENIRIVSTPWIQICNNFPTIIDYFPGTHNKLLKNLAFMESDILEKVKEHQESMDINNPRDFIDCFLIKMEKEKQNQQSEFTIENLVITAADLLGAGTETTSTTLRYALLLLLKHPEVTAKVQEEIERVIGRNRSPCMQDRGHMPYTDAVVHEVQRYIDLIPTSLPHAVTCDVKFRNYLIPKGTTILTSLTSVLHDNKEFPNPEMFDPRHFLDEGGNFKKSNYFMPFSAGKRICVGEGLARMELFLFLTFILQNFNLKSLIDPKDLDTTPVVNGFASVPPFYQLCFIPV
CYP2D6, sequence (P10635 whole entry): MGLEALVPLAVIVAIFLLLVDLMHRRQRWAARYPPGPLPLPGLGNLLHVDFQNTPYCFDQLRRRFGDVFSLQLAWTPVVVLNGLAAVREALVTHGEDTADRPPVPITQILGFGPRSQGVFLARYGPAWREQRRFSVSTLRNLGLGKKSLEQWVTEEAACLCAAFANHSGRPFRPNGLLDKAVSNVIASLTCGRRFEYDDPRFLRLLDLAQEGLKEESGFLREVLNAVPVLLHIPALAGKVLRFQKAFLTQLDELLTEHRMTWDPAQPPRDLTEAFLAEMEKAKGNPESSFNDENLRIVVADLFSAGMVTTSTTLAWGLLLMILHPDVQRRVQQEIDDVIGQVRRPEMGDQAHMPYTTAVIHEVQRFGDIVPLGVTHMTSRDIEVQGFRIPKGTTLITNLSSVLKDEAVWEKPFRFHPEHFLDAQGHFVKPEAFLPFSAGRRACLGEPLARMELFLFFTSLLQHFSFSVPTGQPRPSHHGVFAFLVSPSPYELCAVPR
CYP2C9, sequence (P11712 whole entry): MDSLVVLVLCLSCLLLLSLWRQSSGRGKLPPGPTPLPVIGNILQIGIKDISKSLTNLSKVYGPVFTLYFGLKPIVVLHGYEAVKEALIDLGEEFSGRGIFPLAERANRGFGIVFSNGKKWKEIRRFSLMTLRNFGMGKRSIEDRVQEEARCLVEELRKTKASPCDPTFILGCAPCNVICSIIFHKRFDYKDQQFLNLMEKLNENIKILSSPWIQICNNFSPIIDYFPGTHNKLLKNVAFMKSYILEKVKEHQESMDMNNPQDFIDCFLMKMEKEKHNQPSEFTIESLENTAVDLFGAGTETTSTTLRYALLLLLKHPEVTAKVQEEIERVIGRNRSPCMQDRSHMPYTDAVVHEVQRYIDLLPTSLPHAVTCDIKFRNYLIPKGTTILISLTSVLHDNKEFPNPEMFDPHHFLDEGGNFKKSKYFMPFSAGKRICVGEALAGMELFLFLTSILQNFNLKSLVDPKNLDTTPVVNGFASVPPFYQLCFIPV

For `CCCCNC(=O)NS(=O)(=O)c1ccc(C(F)(F)F)cc1N1CCN(Cc2nc3ccccc3n2C)CC1` [Compound A-10, 1-butyl-3-[2-[4-[(1-methylbenzimidazol-2-yl)methyl]piperazin-1-yl]-4-(trifluoromethyl)phenyl]sulfonyl-urea], the solubility at 2 h (Kinetic solubility; [1]) was ≥ 400 µM, the solubility at 2 h (Kinetic solubility; [2]) was ≥ 400 µM and the inhibition at 10 µM (CYP2C9) was 46.1%. The inhibition at 10 µM (CYP2C19) was 38.6% and the inhibition at 10 µM (CYP2D6) was 14.8%.
With `CC(C)Oc1ccc(-c2nn[nH]n2)c(N2CCN(Cc3nc4ccccc4n3C)CC2)c1` [Compound A-24, 2-[[4-[5-isopropoxy-2-(2H-tetrazol-5-yl)phenyl]piperazin-1-yl]methyl]-1-methyl-benzimidazole] the solubility at 2 h (Kinetic solubility; [1]) was ≥ 400 µM, the solubility at 2 h (Kinetic solubility; [2]) was ≥ 400 µM and the inhibition at 10 µM (CYP2C9) was 36.6%. The inhibition at 10 µM (CYP2C19) was 30.9% and the inhibition at 10 µM (CYP2D6) was 3.85%.
For `CC(C)Cc1ccc(-c2nn[nH]n2)c(N2CCN(Cc3nc4ccccc4c(=O)[nH]3)CC2)c1` [Compound A-31, 2-[[4-[5-isobutyl-2-(2H-tetrazol-5-yl)phenyl]piperazin-1-yl]methyl]-3H-quinazolin-4-one], the solubility at 2 h (Kinetic solubility; [1]) was ≥ 400 µM, the solubility at 2 h (Kinetic solubility; [2]) was 40 µM (≈ 17.8 µg/mL) and the inhibition at 10 µM (CYP2C9) was 73%. For the same molecule, the inhibition at 10 µM (CYP2C19) was 73% and the inhibition at 10 µM (CYP2D6) was 23.1%.
`CC(C)Oc1ccc(-c2nn[nH]n2)c(N2CCN(Cc3nc4ccccc4c(=O)[nH]3)CC2)c1` [Compound A-32] showed a solubility at 2 h (Kinetic solubility; [1]) of 394 µM (≈ 176 µg/mL), a solubility at 2 h (Kinetic solubility; [2]) of 399 µM (≈ 178 µg/mL) and an inhibition at 10 µM (CYP2C9) of 62.4%. For the same molecule, the inhibition at 10 µM (CYP2C19) was 48.6% and the inhibition at 10 µM (CYP2D6) was 38.2%.
`Cc1cc(CN2CCN(c3cc(CC(C)C)ccc3-c3nn[nH]n3)CC2)no1` [Compound A-82, 3-[[4-[5-isobutyl-2-(2H-tetrazol-5-yl)phenyl]piperazin-1-yl]methyl]-5-methyl-isoxazole] showed an inhibition at 10 µM (CYP2C9) of 32.1%, an inhibition at 10 µM (CYP2C19) of -4.12% and an inhibition at 10 µM (CYP2D6) of -2.54%.
In the case of `CC(C)Cc1ccc(-c2nn[nH]n2)c(N2CCN(Cc3nccn3C)CC2)c1` [Compound A-83, 1-[5-isobutyl-2-(2H-tetrazol-5-yl)-phenyl]-4-[(1-meth-ylimidazol-2-yl)-methyl]piperazine], the inhibition at 10 µM (CYP2C9) is reported as 3.37%, the inhibition at 10 µM (CYP2C19) is reported as 6.38% and the inhibition at 10 µM (CYP2D6) is reported as -0.65%.
`CC(C)Cc1ccc(-c2nn[nH]n2)c(N2CCN(Cc3ccnn3C)CC2)c1` [Compound A-84, 1-[5-isobutyl-2-(2H-tetrazol-5-yl)phenyl]-4-[(1-methylpyrazol-5-yl)methyl]piperazine] showed an inhibition at 10 µM (CYP2C9) of 56.2%, an inhibition at 10 µM (CYP2C19) of 18.9% and an inhibition at 10 µM (CYP2D6) of -7.67%.
In the case of `CC(C)Cc1ccc(-c2nn[nH]n2)c(N2CCN(Cc3ncccn3)CC2)c1` [Compound A-88], the inhibition at 10 µM (CYP2C9) is reported as 15.8%, the inhibition at 10 µM (CYP2C19) is reported as 17.6% and the inhibition at 10 µM (CYP2D6) is reported as 6.32%.
For `CC(C)Cc1ccc(-c2nn[nH]n2)c(N2CCN(Cc3cccnn3)CC2)c1` [Compound A-90, 3-[[4-[5-isobutyl-2-(2H-tetrazol-5-yl)phenyl]piperazin-1-yl]methyl]pyridazine], the solubility at 2 h (Kinetic solubility; [1]) was ≥ 400 µM, the solubility at 2 h (Kinetic solubility; [2]) was ≥ 400 µM and the inhibition at 10 µM (CYP2C9) was 28.4%. It also gave an inhibition at 10 µM (CYP2C19) of 27.9% and an inhibition at 10 µM (CYP2D6) of 1.84%.
Molecule `CC(C)Cc1cc(F)c(-c2nn[nH]n2)c(N2CCN(Cc3cccnn3)C(C)C2)c1` (stereo not shown) [Compound A-173, 3-[[4-[3-fluoro-5-isobutyl-2-(2H-tetrazol-5-yl)phenyl]-2-methyl-piperazin-1-yl]methyl]pyridazine] has a solubility at 2 h (Kinetic solubility; [1]) of 376 µM (≈ 154 µg/mL), a solubility at 2 h (Kinetic solubility; [2]) of 356 µM (≈ 146 µg/mL) and an inhibition at 10 µM (CYP2C9) of 17.2%. The inhibition at 10 µM (CYP2C19) was 8.93% and the inhibition at 10 µM (CYP2D6) was 16.3%.
Work on `CC(C)Cc1cc(F)c(-c2nn[nH]n2)c(N2CCN(Cc3cccnn3)[C@@H](C)C2)c1` [Compound A-174, 3-[[(2S)-4-[3-fluoro-5-isobutyl-2-(2H-tetrazol-5-yl)phenyl]-2-methyl-piperazin-1-yl]methyl]pyridazine] yielded a solubility at 2 h (Kinetic solubility; [1]) of 385 µM (≈ 158 µg/mL), a solubility at 2 h (Kinetic solubility; [2]) of 356 µM (≈ 146 µg/mL) and an inhibition at 10 µM (CYP2C9) of 20.9%. For the same molecule, the inhibition at 10 µM (CYP2C19) was 26.5% and the inhibition at 10 µM (CYP2D6) was 9.35%.
In the case of `CCC1CN(c2cc(CC(C)C)cc(F)c2-c2nn[nH]n2)CCN1Cc1cccnn1` (stereo not shown) [Compound A-178, 3-[[2-ethyl-4-[3-fluoro-5-isobutyl-2-(2H-tetrazol-5-yl)phenyl]piperazin-1-yl]methyl]pyridazine], the solubility at 2 h (Kinetic solubility; [1]) is reported as ≥ 400 µM, the solubility at 2 h (Kinetic solubility; [2]) is reported as ≥ 400 µM and the inhibition at 10 µM (CYP2C9) is reported as 45.6%. For the same molecule, the inhibition at 10 µM (CYP2C19) was 7.77% and the inhibition at 10 µM (CYP2D6) was 25.6%.
`CC(C)Cc1cc(F)c(-c2nn[nH]n2)c(N2CCN(Cc3ccccn3)[C@@H](C)C2)c1` [Compound A-217, (2S)-4-[3-fluoro-5-isobutyl-2-(2H-tetrazol-5-yl)phenyl]-2-methyl-1-(2-pyridylmethyl)piperazine] showed an inhibition at 10 µM (CYP2C9) of 51%, an inhibition at 10 µM (CYP2C19) of 39% and an inhibition at 10 µM (CYP2D6) of 68%.
For `Cc1cnc(CN2CCN(c3cc(CC(C)C)cc(F)c3-c3nn[nH]n3)C[C@@H]2C)s1` [Compound A-223, 2-[[(2S)-4-[3-fluoro-5-isobutyl-2-(2H-tetrazol-5-yl)phenyl]-2-methyl-piperazin-1-yl]methyl]-5-methyl-thiazole], the inhibition at 10 µM (CYP2C9) was 43%, the inhibition at 10 µM (CYP2C19) was 25% and the inhibition at 10 µM (CYP2D6) was 15%.
